Results taken from patent US20260256934A1, “ANTIBODY-DRUG CONJUGATE INCLUDING MUTANT Fc REGION” (DAIICHI SANKYO COMPANY, LIMITED, priority 2022, published 2026).

Columns and labels:
[1] = biological target: T1, mouse wild type (Ms-WT) STING C-terminal binding domain protein (Mus musculus, UniProt Q3TBT3); test: Thermal shift assay with recombinant STING C-terminal binding domain protein (Ms-WT); settings: test compound 0.5 mM; Tm minus Tm of well without compound
T1 construct: made in house; host or cells: E. coli Rosetta 2 (DE3), co-expressed with BirA
T1 sequence (Q3TBT3 with tags, fused parts or gaps): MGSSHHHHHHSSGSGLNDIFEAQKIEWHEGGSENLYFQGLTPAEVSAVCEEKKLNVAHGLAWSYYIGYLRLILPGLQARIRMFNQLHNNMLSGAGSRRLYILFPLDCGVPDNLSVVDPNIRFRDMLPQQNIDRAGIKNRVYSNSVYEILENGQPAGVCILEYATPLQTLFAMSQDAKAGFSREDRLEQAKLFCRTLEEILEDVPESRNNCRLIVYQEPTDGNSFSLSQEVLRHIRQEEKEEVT
Description: (§1) Each expression strain was added to TB broth containing 100 μg/mL ampicillin, 50 μg/mL streptomycin, and 30 μg/mL kanamycin, and cultured at 37° C. Expression was then induced with 100 µM IPTG, and the cells were further cultured at 16° C.
(§2) The culture broth was centrifuged, and the obtained bacteria were frozen and thawed. The proteins were extracted by sonication, and the supernatant was collected by centrifugation. The resulting supernatant was purified through a HisTrap FF column (GE Healthcare) using an AKTAexpress chromatography system (GE Healthcare, IL, US), made to pass through a Superdex200 16/60 column (GE Healthcare), and eluted.
(§3) The binding of a compound to each STING C-terminal binding domain protein was determined by a thermal shift assay, which uses the increase in the thermal denaturation temperature of the protein as an indicator.
Specifically, each test compound (final concentration 0.5 mM), SYPRO Orange (final concentration: 20×concentration), and the STING protein were mixed in a 384-well real-time PCR plate using a plate shaker. A real-time PCR system was used to increase the temperature from 25° C. to 95° C. at a rate of 0.03° C. per second, and the thermal denaturation temperature of the protein was measured using the fluorescence emitted by SYPRO Orange as an indicator. Tm (the midpoint of the unfolding transition) (° C.) was determined as the temperature at which the rate of increase in fluorescence intensity reached its maximum value. The shift of Tm by the test compound was calculated as ΔTm (° C.) by subtracting, from the Tm value of each compound, the Tm value of the well without the compound.

[2] = biological target: T2, human wild-type (Hu-WT) STING C-terminal binding domain protein (Homo sapiens, UniProt Q86WV6, H232R); test: Thermal shift assay with recombinant STING C-terminal binding domain protein (Hu-WT); settings: test compound 0.5 mM; Tm minus Tm of well without compound
T2 construct: made in house; host or cells: E. coli Rosetta 2 (DE3), co-expressed with BirA
T2 sequence (Q86WV6 with tags, fused parts or gaps H232R): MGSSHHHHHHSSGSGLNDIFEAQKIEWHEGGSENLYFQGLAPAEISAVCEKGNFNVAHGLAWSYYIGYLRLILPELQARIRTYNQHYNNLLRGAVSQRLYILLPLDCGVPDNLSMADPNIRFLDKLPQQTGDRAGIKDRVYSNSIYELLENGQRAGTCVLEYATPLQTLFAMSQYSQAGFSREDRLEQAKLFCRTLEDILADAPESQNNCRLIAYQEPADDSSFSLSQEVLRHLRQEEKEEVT
Description: as §1, §2, §3
(§4) Specifically, each test compound (final concentration 0.5 mM), SYPRO Orange (final concentration: 20×concentration), and the STING protein were mixed in a 384-well real-time PCR plate using a plate shaker. […] Tm (the midpoint of the unfolding transition) (° C.) was determined as the temperature at which the rate of increase in fluorescence intensity reached its maximum value. The shift of Tm by the test compound was calculated as ΔTm (° C.) by subtracting, from the Tm value of each compound, the Tm value of the well without the compound.

[3] = biological target: T3, human AQ mutant (Hu-AQ) STING C-terminal binding domain protein (Homo sapiens, UniProt Q86WV6, G230A/H232R/R293Q); test: Thermal shift assay with recombinant STING C-terminal binding domain protein (Hu-AQ); settings: test compound 0.5 mM; Tm minus Tm of well without compound
T3 construct: made in house; host or cells: E. coli Rosetta 2 (DE3), co-expressed with BirA
T3 sequence (Q86WV6 with tags, fused parts or gaps G230A/H232R/R293Q): as the sequence (Q86WV6 with tags, fused parts or gaps H232R) above, with G131A, R194Q counted along it
Description: as §1, §2, §3, §4

[4] = biological target: T4, human REF mutant (Hu-REF) STING C-terminal binding domain protein (Homo sapiens, UniProt Q86WV6); test: Thermal shift assay with recombinant STING C-terminal binding domain protein (Hu-REF); settings: test compound 0.5 mM; Tm minus Tm of well without compound
T4 construct: made in house; host or cells: E. coli Rosetta 2 (DE3), co-expressed with BirA
T4 sequence (Q86WV6 with tags, fused parts or gaps, change not shown): as the sequence (Q86WV6 with tags, fused parts or gaps H232R) above, with R133H counted along it
Description: as §1, §2, §3, §4

human FcγRIIIa = biological target: T5, human FcγRIIIa (Homo sapiens, UniProt P08637); test: Human FcγRIIIa binding activity by SPR; settings: anti-EGFR antibodies as analyte, 0.9-4.7 μM
T5 construct: purchased R&D systems
T5 sequence (P08637 17-254): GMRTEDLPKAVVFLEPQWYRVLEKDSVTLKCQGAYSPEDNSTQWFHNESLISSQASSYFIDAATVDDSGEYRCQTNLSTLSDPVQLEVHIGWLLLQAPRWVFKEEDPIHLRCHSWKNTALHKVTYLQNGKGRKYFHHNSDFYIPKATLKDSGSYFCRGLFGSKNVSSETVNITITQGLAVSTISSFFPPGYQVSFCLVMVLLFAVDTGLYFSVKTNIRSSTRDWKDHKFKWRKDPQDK
Description: (§5) The binding activity was determined by directly immobilizing human FcγR as a ligand onto a sensor chip, then adding each anti-EGFR antibody as an analyte to the sensor chip, and measuring the interaction between the ligand and the analyte by SPR. Recombinant Human Fc gammaRIIA/CD32a (R167) Protein (R&D systems) was immobilized as human FcγRIIa onto Sensor Chip CM5 according to the instructions of the kit. Then, the anti-EGFR antibody prepared at each concentration with HBS-EP+ was added to the sensor chip for 120 sec at a flow rate of 30 μL/min.
Recombinant Human Fc gamma RIIIA/CD16a protein (R&D systems) was used as human FcγRIIIa.

human FcγRI = biological target: T6, human FcγRI (Homo sapiens, UniProt P12314); test: Human FcγRI binding activity by SPR (Biacore T200); settings: anti-EGFR antibodies as analyte, 0.3-4.7 μM; His-tagged FcγRI captured
T6 construct: purchased R&D systems
T6 sequence (P12314 16-374): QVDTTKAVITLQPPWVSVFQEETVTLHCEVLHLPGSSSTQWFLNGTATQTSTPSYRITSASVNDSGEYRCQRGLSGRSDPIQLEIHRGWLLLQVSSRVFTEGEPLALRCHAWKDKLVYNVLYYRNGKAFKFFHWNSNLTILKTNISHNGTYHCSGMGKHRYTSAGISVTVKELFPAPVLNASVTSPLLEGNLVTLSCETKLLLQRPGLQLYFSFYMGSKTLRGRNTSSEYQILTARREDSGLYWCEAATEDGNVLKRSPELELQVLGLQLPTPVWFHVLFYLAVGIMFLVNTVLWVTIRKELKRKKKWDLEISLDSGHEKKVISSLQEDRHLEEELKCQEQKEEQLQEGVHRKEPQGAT
Description: Anti-EGFR antibodies with various introduced effector-less mutations were evaluated for their binding activity against human FcγRI using Biacore T200 (Cytiva). […] The anti-EGFR antibody B used in the Test Example was obtained as HBS-EP+ solution by subjecting commercially available Vectibix Intravenous Infusion (Takeda Pharmaceuticals) (100 mg/5 mL) to buffer exchange using Amicon Ultra-15 Centrifugal Filter Unit (50K, produced by Merck). The binding activity was determined by allowing His-tagged human FcγRI to be captured as a ligand onto an anti-His antibody-immobilized sensor chip, then adding each anti-EGFR antibody as an analyte to the sensor chip, and measuring the interaction between the ligand and the analyte by Surface Plasmon Resonance (SPR). Anti-6× His tag antibody [AD1.1.10] (abcam) was immobilized onto Sensor Chip CM5 (Cytiva) according to the instructions of the kit. Recombinant Human Fc gamma RI/CD64 Protein (R&D systems) prepared at 10 μg/mL with HBS-EP+(GE Healthcare) was contacted with the sensor chip for 60 sec at 10 μL/min and thereby captured. Then, the anti-EGFR antibody prepared at each concentration with HBS-EP+ was added to the sensor chip for 120 sec at a flow rate of 30 μL/min.

human FcγRIIb/c = biological target: T7, human FcγRIIb/c (Homo sapiens, UniProt P31994); test: Human FcγRIIb/c binding activity by SPR; settings: anti-EGFR antibodies as analyte, 0.9-4.7 μM
T7 construct: purchased R&D systems
T7 sequence (P31994 43-310): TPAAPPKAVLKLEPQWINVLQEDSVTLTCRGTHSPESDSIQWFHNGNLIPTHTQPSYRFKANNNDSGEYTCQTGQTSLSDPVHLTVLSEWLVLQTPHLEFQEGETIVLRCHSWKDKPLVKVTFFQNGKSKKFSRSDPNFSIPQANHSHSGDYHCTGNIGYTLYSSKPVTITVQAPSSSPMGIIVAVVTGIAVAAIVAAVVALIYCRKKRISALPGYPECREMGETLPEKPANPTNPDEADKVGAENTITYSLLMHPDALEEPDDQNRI
Description: as §5
Recombinant Human Fc gamma RIIB/C (CD32b/c) Protein (R&D systems) was used as human FcγRIIb/c.

human FcγRIIIb = biological target: T8, human FcγRIIIb (Homo sapiens, UniProt O75015); test: Human FcγRIIIb binding activity by SPR; settings: anti-EGFR antibodies as analyte, 0.9-4.7 μM
T8 construct: purchased R&D systems
T8 sequence (O75015 17-200): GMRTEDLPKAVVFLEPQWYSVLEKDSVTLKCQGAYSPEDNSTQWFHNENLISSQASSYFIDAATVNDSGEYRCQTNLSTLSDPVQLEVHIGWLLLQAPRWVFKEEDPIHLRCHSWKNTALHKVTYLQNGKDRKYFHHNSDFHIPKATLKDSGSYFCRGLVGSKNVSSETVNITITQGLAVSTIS
Description: as §5
Recombinant Human Fc gamma RIIIB/CD16b Protein (R&D systems) was used as human FcγRIIIb.

Row | Compound | ΔTm (° C.) Ms-WT [1] [°C] | ΔTm (° C.) Hu-WT [2] [°C] | ΔTm (° C.) Hu-AQ [3] [°C] | ΔTm (° C.) Hu-REF [4] [°C] | other results
1 | O=c1c2ncn([C@@H]3O[C@@H]4COP(=O)(S)O[C@H]5[C@@H](O)[C@H](n6cc7c8c(ncnc86)NCCC7)O[C@@H]5COP(=O)(S)O[C@@H]3[C@@H]4O)c2ncn1CCO (single isomer, unassigned) [Compound 6b] | 12.9 | 8.4 | 11.3 | 3.4 | 
2 | O=c1c2ncn([C@@H]3O[C@@H]4COP(=O)(S)O[C@H]5[C@@H](F)[C@H](n6cc7c8c(ncnc86)NCCC7)O[C@@H]5COP(=O)(S)O[C@@H]3[C@@H]4O)c2ncn1CCO (single isomer, unassigned) [Compound 34b] | 16.7 | 12.0 | 14.0 | 6.5 | 
3 | O=c1c2ncn([C@@H]3O[C@@H]4COP(=O)(S)O[C@H]5[C@@H](O)[C@H](n6cc7c8c(ncnc86)NCCC7)O[C@@H]5COP(=O)(S)O[C@@H]3[C@@H]4F)c2ncn1CCO (single isomer, unassigned) [Compound 39b] |  |  |  |  | ΔTm at 500 µM [1]: 13.1 °C; ΔTm at 500 µM [2]: 8.9 °C; ΔTm at 500 µM [3]: 10.5 °C; ΔTm at 500 µM [4]: 3.7 °C
4 | O=c1c2ncn([C@@H]3O[C@@H]4COP(=O)(S)O[C@H]5[C@@H](F)[C@H](n6cc7c8c(ncnc86)NCCC7)O[C@@H]5COP(=O)(S)O[C@@H]3[C@@H]4F)c2ncn1CCO (single isomer, unassigned) [Compound 44b] | 17.0 | 11.4 | 14.3 | 6.2 | 
5 | O=c1c2ncn([C@@H]3O[C@@H]4COP(=O)(S)O[C@H]5[C@@H](F)[C@H](n6cc7c8c(ncnc86)SCCC7)O[C@@H]5COP(=O)(S)O[C@@H]3[C@@H]4O)c2ncn1CCO (single isomer, unassigned) [Compound 48b] | 15.8 | 14.0 | 17.8 | 7.3 | 
6 | O=c1c2ncn([C@@H]3O[C@@H]4COP(=O)(O)O[C@H]5[C@@H](F)[C@H](n6cc7c8c(ncnc86)NCCC7)O[C@@H]5COP(=O)(S)O[C@@H]3[C@@H]4O)c2ncn1CCO (single isomer, unassigned) [Compound 52b] | 12.3 | 9.2 | 10.8 | 4.4 | 
7 | IgG2: IgG2-type anti-EGFR antibody, commercially available Vectibix Intravenous Infusion; heavy chain SEQ ID NO: 35 |  |  |  |  | RU value indicating binding to human FcγRIIIa (rank order) (human FcγRIIIa): IgG1 WT>LALA>IgG2>LALA-DG; RU value indicating binding to human FcγRI (rank order) (human FcγRI): IgG1 WT>>LALA>>IgG2>LALA-DG; RU value indicating binding to human FcγRIIb/c (rank order) (human FcγRIIb/c): IgG1 WT>IgG2>LALA>LALA-DG; RU value indicating binding to human FcγRIIIb (rank order) (human FcγRIIIb): IgG1 WT>LALA≈IgG2≈LALA-DG
